Laboratory results: US7105577B2, “Antimicrobial method using a hydroxydiphenyl ether compound” (Ciba Specialty Chemicals Corporation, priority 1999, dated 2006)
≈ marks a conversion by molar mass, not a printed value. Read-outs that look alike come from different tables or passages of the source. Values belong to the compound of their own block, whether it stands above or below them.

Legend:
Format in all cases: cell-based
[1] = test system: Staphylococcus aureus ATCC 6538; experiment: Agar incorporation test, MIC; settings: for MIC: ATCC6538
Text: (§1) Medium: • Nutrient agar as test agar for bacteria: • Mueller hinton agar to cultivate the aerobic bacteria • Mueller hinton bouillon for obtaining the suspension of microorganisms • Ethanol as solvent • Wilkins-Chalgren agar to cultivate the […] bacteria • Sabouraud glucose agar to cultivate the dermatophytes
(§2) Examples of Test bacteria • Staphylococcus aureusATCC 6538 • Staphylococcus hominis DSM 20330 • Escherichia coli NCTC 8196 • Pseudomonas aeruginosa CIP A-22 • Candida albicans ATCC 10231 • Aspergillus niger ATCC 6275
(§3) Procedure: The test substances are dissolved in ethanol, and a dilution series of the compound of the formula (102) in agar are prepared. • Anaerobic bacteria and dermatophytes are activated on agar-plates, and washes off with Mueller-Hinton bouillon. Aerobic bacteria are activated in Mueller-Hinton bouillon overnight. The test germ suspension are diluted with Mueller-Hinton bouillon to a density of McFarland standard 0.5. • 10 μl of each germ suspension is dropped onto the agar plates containing the test substance, and the plates are then incubated at 37° C. for 2 days. (Aerobic bacteria are incubated at 36° C. for 72 hours, anaerobic bacteria are incubated at 30° C. for 72 hours). As controls, the bacterial suspensions are applied to agar plates without test substances.

[2] = test system: Staphylococcus hominis DSM 20328; experiment: Agar incorporation test, MIC; settings: for MIC: DSM20328, Table 1, Staphylococcus hominis DSM 20328, agar incorporation, read-out: Minimum Inhibitory Concentration, SH
[3] = test system: Candida albicans ATCC 10231; experiment: Agar incorporation test, MIC; settings: for MIC: ATCC10231
Text: as §1, §2, §3

[4] = test system: Escherichia coli NCTC 8196; experiment: Agar incorporation test, MIC; settings: for MIC: NCTC8196
Text: as §1, §2, §3

[5] = test system: Pseudomonas aeruginosa CIP A-22; experiment: Agar incorporation test, MIC; settings: for MIC: CIPA22
Text: as §1, §2, §3

[6] = test system: Aspergillus niger ATCC 6275; experiment: Agar incorporation test, MIC; settings: Table 4
Text: as §1, §2, §3

[7] = test system: Corynebacterium minutissimum ATCC 23348; experiment: Microbiological data (MIC); settings: Table 4
Method: as §1, §3
(§4) Microbiological data of the above compounds (MIC in ppm): […]

[8] = test system: Trichophyton rubrum DSM 4167; experiment: Microbiological data (MIC); settings: Table 4
Method: as §1, §3, §4

[9] = test system: Proteus vulgaris ATCC 6896; experiment: Microbiological data (MIC); settings: Table 4
Method: as §1, §3, §4

[10] = test system: Selenomonas artemidis ATCC 43528; experiment: Microbiological data (MIC); settings: Table 4
Method: as §1, §3, §4

[11] = test system: Actinomyces viscosum DSM 43329; experiment: Microbiological data (MIC); settings: Table 4
Method: as §1, §3, §4

[12] = test system: Corynebacterium xerosis ATCC 373/ATCC 7711; experiment: Microbiological data (MIC); settings: Table 4
Method: as §1, §3, §4

[13] = test system: Staphylococcus epidermidis ATCC 12228; experiment: Microbiological data (MIC); settings: Table 4
Method: as §1, §3, §4

[14] = test system: Trichophyton mentagrophytes ATCC 9553; experiment: Microbiological data (MIC); settings: Table 4
Method: as §1, §3, §4

[15] = test system: Epidermophyton floccosum CBS 55384; experiment: Microbiological data (MIC); settings: Table 4
Method: as §1, §3, §4

[16] = test system: Porphyromonas gingivalis DSM 20709; experiment: Microbiological data (MIC); settings: Table 4
Method: as §1, §3, §4

[17] = test system: Streptococcus sobrinus DSM 20742; experiment: Microbiological data (MIC); settings: Table 4
Method: as §1, §3, §4

[18] = test system: Propionibacterium acnes ATCC 11829; experiment: Microbiological data (MIC); settings: Table 4
Method: as §1, §3, §4

[19] = test system: Malassezia furfur DSM 6171; experiment: Microbiological data (MIC); settings: DSM6171, Table 4
Method: as §1, §3, §4

[20] = Table 1, Staphylococcus aureus ATCC 6538, agar incorporation, read-out: Minimum Inhibitory Concentration, SA
[21] = Table 1, Candida albicans ATCC 10231, agar incorporation, read-out: Minimum Inhibitory Concentration, CA
[22] = Table 1, Escherichia coli NCTC 8196, agar incorporation, read-out: Minimum Inhibitory Concentration, EC
[23] = Table 1, Pseudomonas aeruginosa CIP A-22, agar incorporation, read-out: Minimum Inhibitory Concentration, PA

SMILES: Cc1ccc(C2CCCCC2)c(Oc2ccc(O)cc2)c1 [(119)]
MIC [1, 20]: 3 µg/mL (≈ 10.6 µM) | MIC [2]: 3 µg/mL (≈ 10.6 µM)

SMILES: CC(C)CCc1ccc(Oc2ccc(O)cc2)cc1 [(120)]
MIC [2]: 4 µg/mL (≈ 15.6 µM)

SMILES: Cc1ccc(C(C)(C)C)c(Oc2ccc(O)cc2)c1 [(121)]
MIC [3, 21]: 13 µg/mL (≈ 50.7 µM) | MIC [1, 20]: 7 µg/mL (≈ 27.3 µM) | MIC [2]: 5 µg/mL (≈ 19.5 µM)

SMILES: Cc1ccc(C(C)C)cc1Oc1ccc(O)cc1 [(122)]
MIC [3, 21]: 13 µg/mL (≈ 53.6 µM) | MIC [1, 20]: 6 µg/mL (≈ 24.8 µM) | MIC [2]: 6 µg/mL (≈ 24.8 µM)

SMILES: Oc1ccc(Oc2ccc(CCc3ccccc3)cc2)cc1 [(123)]
MIC [2]: 8 µg/mL (≈ 27.6 µM)

SMILES: CCc1ccc(Oc2ccc(O)cc2)c(C(C)C)c1 [(124)]
MIC [3, 21]: 60 µg/mL (≈ 234 µM) | MIC [2]: 8 µg/mL (≈ 31.2 µM)

SMILES: Cc1ccc(C)c(Oc2ccc(O)cc2)c1 [(129)]
MIC [3, 21]: 25 µg/mL (≈ 117 µM) | MIC [5, 23]: 25 µg/mL (≈ 117 µM) | MIC [1, 20]: 50 µg/mL (≈ 233 µM)

SMILES: Cc1ccc(C(C)C)cc1Oc1ccc(O)cc1 [R1 = Me R2 = i-Propyl]
MIC, Escherichia coli NCTC 8196 ([4]; Table 4): >200 ppm | MIC, Candida albicans ATCC 10231 ([3]; Table 4): 12.5 ppm | MIC, Aspergillus niger ATCC 6275 [6]: 50 ppm | MIC, Pseudomonas aeruginosa CIP A-22 ([5]; Table 4): >200 ppm | MIC, Staphylococcus aureus ATCC 6538 ([1]; Table 4): 6.25 ppm | MIC, Corynebacterium minutissimum ATCC 23348 [7]: 6.25 ppm | MIC, Trichophyton rubrum DSM 4167 [8]: 5 ppm | MIC, Proteus vulgaris ATCC 6896 [9]: >200 ppm | MIC, Selenomonas artemidis ATCC 43528 [10]: 10 ppm | MIC, Actinomyces viscosum DSM 43329 [11]: 80 ppm | MIC, Corynebacterium xerosis ATCC 373/ATCC 7711 [12]: 3.125 ppm | MIC, Staphylococcus epidermidis ATCC 12228 [13]: 6.25 ppm | MIC, Trichophyton mentagrophytes ATCC 9553 [14]: 6.25 ppm | MIC, Epidermophyton floccosum CBS 55384 [15]: <3.125 ppm | MIC, Porphyromonas gingivalis DSM 20709 [16]: 5 ppm | MIC, Streptococcus sobrinus DSM 20742 [17]: 5 ppm | MIC, Propionibacterium acnes ATCC 11829 [18]: 10 ppm | MIC, Staphylococcus hominis DSM 20328 ([2]; Table 4): 6.25 ppm

SMILES: Cc1ccc(C)c(Oc2ccc(O)cc2)c1 [R1 = R2 = Me]
MIC, Escherichia coli NCTC 8196 ([4]; Table 4): >200 ppm | MIC, Candida albicans ATCC 10231 ([3]; Table 4): 25.0 ppm | MIC, Pseudomonas aeruginosa CIP A-22 ([5]; Table 4): >200 ppm | MIC, Staphylococcus aureus ATCC 6538 ([1]; Table 4): 50.0 ppm | MIC, Corynebacterium minutissimum ATCC 23348 [7]: 25.0 ppm | MIC, Proteus vulgaris ATCC 6896 [9]: >200 ppm | MIC, Corynebacterium xerosis ATCC 373/ATCC 7711 [12]: 25.0 ppm | MIC, Staphylococcus epidermidis ATCC 12228 [13]: 25.0 ppm

Now from value to compound:

MIC [4, 22]: 120 µg/mL (≈ 526 µM) | MIC [3, 21]: 30 µg/mL (≈ 131 µM) | MIC [2]: 30 µg/mL (≈ 131 µM)
SMILES: CCCc1ccc(Oc2ccc(O)cc2)cc1 [(125)]

MIC [4, 22]: 120 µg/mL (≈ 560 µM) | MIC [3, 21]: 120 µg/mL (≈ 560 µM) | MIC [2]: 120 µg/mL (≈ 560 µM)
SMILES: CCc1ccc(Oc2ccc(O)cc2)cc1 [(126)]

MIC [4, 22]: 100 µg/mL (≈ 537 µM) | MIC [3, 21]: 50 µg/mL (≈ 269 µM) | MIC [5, 23]: 50 µg/mL (≈ 269 µM) | MIC [1, 20]: 500 µg/mL (≈ 2690 µM)
SMILES: Oc1ccc(Oc2ccccc2)cc1 [(127)]

MIC [4, 22]: 50 µg/mL (≈ 197 µM) | MIC [3, 21]: 50 µg/mL (≈ 197 µM) | MIC [5, 23]: 50 µg/mL (≈ 197 µM) | MIC [1, 20]: 50 µg/mL (≈ 197 µM)
SMILES: Oc1ccc(Oc2ccc(C(F)(F)F)cc2)cc1 [(128)]

MIC [3, 21]: 20 µg/mL (≈ 74 µM) | MIC [5, 23]: 20 µg/mL (≈ 74 µM) | MIC [1, 20]: 50 µg/mL (≈ 185 µM)
SMILES: CCCc1ccc(Oc2ccc(O)cc2)c(C(C)C)c1 [(130)]

MIC ([4]; Escherichia coli, Table 4, read-out: MIC, Escherichia coli NCTC 8196): > 100 µg/mL | MIC ([3]; Candida albicans, Table 4, read-out: MIC, Candida albicans ATCC 10231): 12.5 µg/mL (≈ 48.8 µM) | MIC ([6]; Aspergillus niger, ATCC6275, read-out: MIC, Aspergillus niger ATCC 6275): 6.75 µg/mL (≈ 26.3 µM) | MIC ([5]; Pseudomonas aeruginosa, Table 4, read-out: MIC, Pseudomonas aeruginosa CIP A-22): > 100 µg/mL | MIC ([1]; Staphylococcus aureus, Table 4, read-out: MIC, Staphylococcus aureus ATCC 6538): 6.75 µg/mL (≈ 26.3 µM) | MIC ([7]; Corynebacterium minutissimum, ATCC23348): 3.4 µg/mL (≈ 13.3 µM) | MIC ([8]; Trichophyton rubrum, DSM4167): 10 µg/mL (≈ 39 µM) | MIC ([9]; Proteus vulgaris, ATCC6896): > 100 µg/mL | MIC ([10]; Centipeda artemidis, ATCC43528): 5 µg/mL (≈ 19.5 µM) | MIC [19]: 2.5 µg/mL (≈ 9.75 µM) | MIC ([11]; Actinomyces, DSM43329): 5 µg/mL (≈ 19.5 µM) | MIC ([12]; Corynebacterium xerosis): 3.4 µg/mL (≈ 13.3 µM) | MIC ([13]; Staphylococcus epidermidis, ATCC12228): 3.4 µg/mL (≈ 13.3 µM) | MIC ([14]; Trichophyton mentagrophytes, ATCC9553): 3.4 µg/mL (≈ 13.3 µM) | MIC ([15]; Epidermophyton floccosum, CBS55384): 1.65 µg/mL (≈ 6.44 µM) | MIC ([16]; Porphyromonas gingivalis, DSM20709): 1.25 µg/mL (≈ 4.88 µM) | MIC ([17]; Streptococcus sobrinus, DSM20742): 5 µg/mL (≈ 19.5 µM) | MIC ([18]; Cutibacterium acnes, ATCC11829): 5 µg/mL (≈ 19.5 µM)
SMILES: Cc1ccc(C(C)(C)C)c(Oc2ccc(O)cc2)c1 [R1 = t-Butyl R2 = Me, 4-(2-t-Butyl-5-methylphenoxy)phenol]
